Experimental findings from ChEMBL document CHEMBL1201862, “PubChem BioAssay data set” (2004) are described below.

Some test systems named below: A498; A549; ACHN; EKVX; IGROV-1; LOX IMVI; M14; MDA-MB-435; MOLT-4; Malme-3M; NCI-H23; OVCAR-3; OVCAR-5; RPMI-8226; SF-295; SK-MEL-28; SK-MEL-2; SNB-19; T47D; U-251.
Experiment in all cases: NCI tumour cell line growth inhibition, 48 h

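Compound exposure: 48 hours, 5 concentrations, 96-well plates. GI50: concentration for 50% inhibition of growth.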 Active and inactive are the calls of the source. No stated cut-off is given here; in the data, active = GI50 up to about 1.1 µM and inactive = higher.

Take `O=C(/C=C/c1ccccc1)CCc1c(O)c2ccccc2oc1=O`: the GI50 with A498 is 74.5 µM (inactive); in the experiment with A549, 83.8 µM (inactive); in the experiment on ACHN, > 100 µM (inactive); with EKVX, 83 µM (inactive); in the experiment on IGROV-1 it was > 100 µM (inactive); with LOX IMVI, 52.5 µM (inactive). The GI50 in the experiment on M14 is > 100 µM (inactive); with MDA-MB-435, 67.9 µM (inactive); in the experiment with MOLT-4 it was 27.7 µM (inactive); with Malme-3M, > 100 µM (inactive); in the experiment on NCI-H23 it was 65.5 µM (inactive); with OVCAR-3, 49.4 µM (inactive). Also, the GI50 in the experiment with OVCAR-5 was > 100 µM (inactive); with RPMI-8226 it was 32.3 µM (inactive); with SF-295, > 100 µM (inactive); in the experiment with SK-MEL-28 it was > 100 µM (inactive); in the experiment on SK-MEL-2, 71.9 µM (inactive); in the experiment with SNB-19 it was > 100 µM (inactive). In addition, the GI50 is > 100 µM (inactive) with T47D and 50.9 µM (inactive) in the experiment with U-251.

Regarding `c1ccc(C2=NOC(c3ccccc3)N2C23CC4CC(CC(C4)C2)C3)cc1` (stereo not given), the GI50 with A498, in the experiment on A549, in the experiment with ACHN, with EKVX, with IGROV-1 and in the experiment on LOX IMVI was > 10 µM (inactive) in each case. For the same compound, the GI50 was > 10 µM (inactive) in the experiment with M14; > 10 µM (inactive) with MDA-MB-435; 9.53 µM (inactive) with MOLT-4; > 10 µM (inactive) in the experiment with Malme-3M; > 10 µM (inactive) with NCI-H23; > 10 µM (inactive) in the experiment with OVCAR-3. In addition, the GI50 with OVCAR-5, with RPMI-8226, in the experiment with SF-295, in the experiment with SK-MEL-28, in the experiment with SK-MEL-2 and with SNB-19 was > 10 µM (inactive) each time. Moreover, the GI50 in the experiment on T47D and in the experiment on U-251 was > 10 µM (inactive) throughout.

For the compound `CC(=O)CC(C)(C)NC(=O)[C@@]1(O)CC[C@H]2[C@@H]3CCC4=CC(=O)CC[C@@H]4[C@H]3CC[C@@]21C`, the GI50 in the experiment with A498, in the experiment on A549, with ACHN, in the experiment with EKVX, in the experiment with IGROV-1 and with LOX IMVI was > 100 µM (inactive) in each case. Besides, the GI50 was > 100 µM (inactive) with M14; > 100 µM (inactive) in the experiment with MDA-MB-435; 56.4 µM (inactive) in the experiment on MOLT-4; > 100 µM (inactive) in the experiment on Malme-3M; > 100 µM (inactive) in the experiment with NCI-H23; > 100 µM (inactive) in the experiment with OVCAR-3. Further, the GI50 in the experiment with OVCAR-5, in the experiment with RPMI-8226, with SF-295, with SK-MEL-28, in the experiment on SK-MEL-2 and with SNB-19 was > 100 µM (inactive) throughout. Also, the GI50 is 63.1 µM (inactive) in the experiment on T47D and > 100 µM (inactive) with U-251.

In the case of `Cc1cn2c(/C=C3/C(=O)Nc4ccccc43)c(C)nc2s1`, the GI50 with A498 is 1.33 µM (inactive); in the experiment on A549, 2.02 µM (inactive); in the experiment on ACHN it was 6.07 µM (inactive); in the experiment with EKVX, 6.11 µM (inactive); with IGROV-1 it was 0.634 µM (active); in the experiment on LOX IMVI, 3.46 µM (inactive). For the same compound, the GI50 is 0.991 µM (active) in the experiment on M14; 0.138 µM (active) with MDA-MB-435; 0.581 µM (active) in the experiment on MOLT-4; 2.61 µM (inactive) with Malme-3M; 4.19 µM (inactive) with NCI-H23; 0.787 µM (active) in the experiment on OVCAR-3. Further, the GI50 with OVCAR-5 was 6.55 µM (inactive); in the experiment with RPMI-8226, 1.75 µM (inactive); with SF-295, 0.652 µM (active); in the experiment on SK-MEL-28, 5.96 µM (inactive); in the experiment on SK-MEL-2, 1.32 µM (inactive); in the experiment on SNB-19 it was 3.32 µM (inactive). The values for the GI50 in the experiment on T47D and with U-251 were 0.665 µM (active) and 2.24 µM (inactive), respectively.

For `O=C(O)c1c2c(cc3c1CC1(Cc4cc5c(cc4C1=O)CCC5)C3)CCC2` (stereo not given), the GI50 is > 100 µM (inactive) in the experiment with A498; 54.8 µM (inactive) in the experiment with A549; 56.4 µM (inactive) in the experiment with ACHN; 87.5 µM (inactive) in the experiment on EKVX; > 100 µM (inactive) in the experiment with IGROV-1; 57.1 µM (inactive) in the experiment on LOX IMVI. The GI50 in the experiment with M14 is > 100 µM (inactive); with MDA-MB-435, > 100 µM (inactive); in the experiment with MOLT-4 it was 50.8 µM (inactive); in the experiment with Malme-3M, > 100 µM (inactive); with NCI-H23, 81.1 µM (inactive); in the experiment on OVCAR-3, 56.4 µM (inactive). Further, the GI50 in the experiment on OVCAR-5 is > 100 µM (inactive); with RPMI-8226 it was > 100 µM (inactive); with SF-295, > 100 µM (inactive); in the experiment on SK-MEL-28 it was 26.9 µM (inactive); with SK-MEL-2 it was > 100 µM (inactive); with SNB-19, > 100 µM (inactive). Further, the GI50 with T47D is 80 µM (inactive); in the experiment with U-251, 85.9 µM (inactive).

Turning to `O=C(/C=C/c1ccc(O)cc1)c1ccc(O)cc1` [4,4'-DIHYDROXYCHALCONE], the GI50 in the experiment on A498 was 31 µM (inactive); with A549, 30.5 µM (inactive); in the experiment on ACHN, 23.9 µM (inactive); in the experiment on EKVX, 42.3 µM (inactive); in the experiment on IGROV-1, 32.1 µM (inactive); in the experiment with LOX IMVI, 11.4 µM (inactive). For the same compound, the GI50 in the experiment on M14 is 18.8 µM (inactive); with MDA-MB-435, 40.2 µM (inactive); in the experiment on MOLT-4, 19.3 µM (inactive); in the experiment on Malme-3M, 27.7 µM (inactive); in the experiment with NCI-H23, 25.5 µM (inactive); with OVCAR-3, 22 µM (inactive). In addition, the GI50 in the experiment with OVCAR-5 was 33.3 µM (inactive); with RPMI-8226 it was 11.2 µM (inactive); with SF-295, 31.8 µM (inactive); in the experiment with SK-MEL-28, 28.1 µM (inactive); in the experiment with SK-MEL-2, 19.6 µM (inactive); in the experiment with SNB-19, 32.7 µM (inactive). Also, the GI50 in the experiment with T47D is 44.1 µM (inactive); with U-251, 18 µM (inactive).

For the compound `NS(=O)(=O)c1ccc(/N=N/c2c(O)c(C(=O)O)cc3ccccc23)cc1`, the GI50 was > 100 µM (inactive) with A498; > 100 µM (inactive) with A549; > 100 µM (inactive) with ACHN; > 100 µM (inactive) in the experiment with EKVX; > 100 µM (inactive) in the experiment on IGROV-1; 82.6 µM (inactive) in the experiment on LOX IMVI. The GI50 in the experiment on M14 was > 75.9 µM (inactive); in the experiment on MDA-MB-435 it was 45.4 µM (inactive); with MOLT-4 it was > 100 µM (inactive); in the experiment with Malme-3M it was 26.1 µM (inactive); in the experiment on NCI-H23, > 100 µM (inactive); in the experiment with OVCAR-3, > 100 µM (inactive). Further, the GI50 with OVCAR-5 is > 100 µM (inactive); with RPMI-8226 it was > 100 µM (inactive); in the experiment with SF-295, > 100 µM (inactive); in the experiment on SK-MEL-28 it was > 93.5 µM (inactive); in the experiment with SK-MEL-2, > 100 µM (inactive); with SNB-19 it was 43.1 µM (inactive). Further, the GI50 in the experiment with T47D was > 100 µM (inactive); with U-251 it was 49.3 µM (inactive).

`N/C(=N/c1ccc(O)cc1)S(=O)O`: the GI50 in the experiment with A498, with A549, in the experiment on ACHN, with EKVX, in the experiment on IGROV-1 and with LOX IMVI was > 100 µM (inactive) in each case. Besides, the GI50 with M14, in the experiment on MDA-MB-435, with MOLT-4, with Malme-3M, in the experiment on NCI-H23 and with OVCAR-3 was > 100 µM (inactive) each time. Further, the GI50 with OVCAR-5, with RPMI-8226, with SF-295, with SK-MEL-28, in the experiment with SK-MEL-2 and with SNB-19 was > 100 µM (inactive) in each case. Moreover, the GI50 in the experiment with T47D and in the experiment with U-251 was > 100 µM (inactive) in each case.

As for `COc1ccc(Cn2c3c(cc(OS(=O)(=O)C(F)(F)F)c2=O)Cc2ccccc2-3)cc1`, the GI50 is > 50 µM (inactive) in the experiment with A498; 16.5 µM (inactive) in the experiment on A549; 21.6 µM (inactive) in the experiment with ACHN; 20.4 µM (inactive) in the experiment with EKVX; 22.5 µM (inactive) in the experiment with IGROV-1; 10 µM (inactive) in the experiment on LOX IMVI. For the same compound, the GI50 in the experiment on M14 is 6.65 µM (inactive); in the experiment with MDA-MB-435, 19.3 µM (inactive); in the experiment with MOLT-4 it was 12 µM (inactive); in the experiment on Malme-3M it was 16.2 µM (inactive); with NCI-H23, 19.7 µM (inactive); in the experiment on OVCAR-3, 9.53 µM (inactive). In addition, the GI50 with OVCAR-5 is 20.3 µM (inactive); in the experiment on RPMI-8226, 32.8 µM (inactive); with SF-295 it was 18.9 µM (inactive); in the experiment on SK-MEL-28 it was 18.7 µM (inactive); in the experiment with SK-MEL-2, 45.6 µM (inactive); in the experiment with SNB-19, 19.1 µM (inactive). The GI50 is 32.3 µM (inactive) with T47D and 19.2 µM (inactive) in the experiment with U-251.

In the case of `COc1cc(C(=O)O)ccc1OS(=O)(=O)O`, the GI50 in the experiment on A498 was > 10 µM (inactive); in the experiment on A549, > 100 µM (inactive); in the experiment on ACHN it was > 100 µM (inactive); in the experiment on EKVX, > 100 µM (inactive); with IGROV-1 it was > 100 µM (inactive); in the experiment with LOX IMVI, > 100 µM (inactive). Also, the GI50 in the experiment with M14, in the experiment on MDA-MB-435, in the experiment on MOLT-4, in the experiment on Malme-3M, in the experiment on NCI-H23 and with OVCAR-3 was > 100 µM (inactive) in each case. The GI50 in the experiment on OVCAR-5, with RPMI-8226, with SF-295, in the experiment with SK-MEL-28, with SK-MEL-2 and in the experiment on SNB-19 was > 100 µM (inactive) throughout. For the same compound, the GI50 with T47D and in the experiment on U-251 was > 100 µM (inactive) each time.
